{
  "source": "patent US10668039B2",
  "about": "“Methods for treatment of adenoid cystic carcinoma” (THE CHILDREN'S MEDICAL CENTER CORPORATION, priority 2016, dated 2020)",
  "key": {"[1]": {"test_system": "c-myb:GFP", "assay": "c-myb:GFP zebrafish blastomere embryo culture chemical screen", "format": "cell-based", "details": "approximately 30 μM, 2 days", "protocol": "The inventors have developed an embryo culture system in which embryos bearing a c-myb:GFP transgenic reporter were dissociated during sphere stage at 4 hours post fertilization (hpf), and cultured in gelatin-coated 384 well plates with chemicals for 2 days until imaging for fluorescent reporter activity (FIG. 1). This fluorescent transgene is expressed in a similar pattern to the endogenous gene. […] This transgene responds to inducers of hematopoiesis, as myb is a marker of hematopoietic stem cells (HSCs).\nThe image analysis software (ImageJ and MatLab) was used to identify hits that downregulate c-myb:GFP zebrafish embryo cultures by a z-score less than […] and more than 70% downregulation. Hits were assessed by eye and scored for morphology. Toxic compounds that caused poor embryoid body (EB) formation were assessed a 4.\nZebrafish cell culture: Zebrafish embryo cultures were adapted from Xu (2013). Dissociated blastomere cells were grown in medium composed of 85% LDF medium, 5% heat inactivated FBS, and 10% zebrafish day 1 embryo extract. LDF medium contains 50% Leibowitz's L-15 (Invitrogen), 20% DMEM (Invitrogen), and 30% DMEM/F-12 (Invitrogen), supplemented with 0.018% sodium bicarbonate, 15 mM HEPES (Invitrogen), 1% L-Glutamine (Invitrogen), 10 nM sodium selenite (Sigma-Aldrich), 1% N2 (Invitrogen), 2% B27 (Invitrogen), 1% Penicillin-Streptomycin (Invitrogen), and 0.2% Primocin (InvivoGen).\nScreening procedures: Two 384-well plates were coated with 0.1% gelatin for each chemical library plate. Males of the c-myb:GFP transgenic line were set up overnight with casper females and kept separated until morning when they were mixed for mating. Embryos were washed twice with E3 embryo water and treated with pronase to remove chorions. Dechorionated embryos were washed with E3 embryo water and collected into tubes containing media. Embryos were disassociated by shaking ˜10 times and were filtered through a 40 μm nylon mesh filter. Resulting single cells were diluted with medium and aliquoted 30 μl per well into the 384-well plates at approximately 2 embryo equivalents per well. Chemicals were dispensed immediately afterwards with an Agilent Bravo robot. Chemicals from the libraries were diluted 300 times with LDF medium and were aliquoted 10 μl per well for a final concentration of approximately 33 μM. […] Cells were cultured in a 28° C. incubator with 5% CO2. Two days later, cells were imaged by a Yokogawa Cell Voyager 7000 imager. Images were analyzed by ImageJ and MatLab and confirmed by eye. […]\nCulture of dissociated blastomere cells: Stage-matched zebrafish blastomeres were dissociated at 4 hpf and grown in medium composed of 85% LDF medium, 5% FBS, and 10% embryo extract. LDF medium contains 50% Leibowitz's L-15 (Invitrogen), 20% DMEM (Invitrogen), and 30% DMEM/F-12 (Invitrogen), supplemented with 2% B27 (Gibco), 15 mM HEPES (Gibco), 1% L-glutamine (Gibco), 1% N2 (Gibco), 10 nM sodium selenite (Sigma), 100 ug/mL piperacillin (Sigma), 10 ug/mL ciprofloxacin (GenHunter), and 0.018% sodium bicarbonate (Gibco). Embryo extract was made by homogenizing 24 hpf wildtype AB embryos in HBSS (Gibco)."}, "[2]": {"test_system": "ACCx11", "assay": "ACC xenotransplantation trial, ACCx11", "format": "in vivo, nude mice", "details": "for tumor growth inhibition ACCx11: oral 0.2 mL flat dose: ATRA 4 mg/mL, isotretinoin 30 mg/mL, fenretinide 40 mg/mL", "protocol": "(§1) Xenograft experiments: To generate ACC xenografts, 1×10^6 viable ACC cells were injected into the flank of female nude (Foxn1nu) mice for in vivo drug testing of ACCx6, ACCx9, and ACCx11 lines. Once tumors were visible, the mice were randomized to receive vehicle control or drug until reaching a […] tumor volume of 1,000 mm3. The mice in each group were treated with an oral flat dose five times weekly (po qdx5) for four cycles (two days off between cycles). The exact dosing was determined based on an initial MTD tolerability study and published literature reports. Five mice per group were treated for ACCx6 and ACCx9, and four mice per group were treated for ACCx11 (five mice in the control ACCx11 group), and the tumor volumes were quantified. Mice were treated with a flat dose of 0.2 mL orally of: 30 mg/mL isotretinoin; 40 mg/mL fenretinide; 4 mg/mL ATRA for ACCx6 and ACCx11 or 3 mg/mL ATRA for ACCx9. Mouse procedures used in this study were approved by the IACUC at South Texas Accelerated Research Therapeutics (San Antonio, Tex.).\n(§2) Primagraft experiments: For in vivo drug testing, ACC tumor fragments from host animals were implanted subcutaneously into the flank of nude mice (CRL: ATH/NU). Once tumors reached 125-250 mm3, mice were randomized to receive vehicle or drug diluted in 10:90 DMSO:10% hydroxypropyl-beta-cyclodextrin orally until controls reached a tumor volume endpoint of 1-2 cm3 (4-9 mice per group: x5M1 and x6, 4 treated vs. 9 vehicle controls; x9, 4 treated vs. 5 vehicle controls; x11, 5 treated vs. 8 vehicle controls). Mice were treated with ATRA (ACC x6 and x11: 4 mg/mL, 0.2 mL flat dose; ACC×9: 3 mg/mL, 0.2 mL flat dose) or isotretinoin (30 mg/mL, 0.2 mL flat dose). Tumor growth was monitored and mice weighed twice weekly and studies ended when final group reached tumor volume endpoint. No statistical methods were employed to determine the sample size, and no blinding of investigators was performed. After long-term tumor growth inhibition studies were completed, the ATRA treated mice stopped receiving treatment and were maintained longer as indicated to monitor tumor maintenance after treatment cessation. For long-term tumor growth inhibition studies, ACC x6, x9, and x11 models were used and primagrafts collected at the completion of the study. Short-term kinetics studies were also undertaken with ACC x9 and x5M1 primagrafts involving 3 day ATRA treatments. All animal procedures used in this study were approved by the IACUC at START, San Antonio, Tex."}, "[3]": {"test_system": "ACC patient derived xenografts", "assay": "ACC xenotransplantation trials, average across ACCx6, ACCx9 and ACCx11", "format": "in vivo, nude mice", "set-up": "concentration or dose not given beside the values", "details": "average of ACCx6, ACCx9, ACCx11", "protocol": "as §1, §2"}, "[4]": {"test_system": "cleaved caspase-3", "assay": "Immunohistochemistry of ACC primagrafts, cleaved caspase-3", "format": "in vivo, nude mice", "details": "ACC x6, x9, x11 primagrafts at conclusion of long-term studies", "from_the_text": "Primagraft experiments: For in vivo drug testing, ACC tumor fragments from host animals were implanted subcutaneously into the flank of nude mice (CRL: ATH/NU). Once tumors reached 125-250 mm3, mice were randomized to receive vehicle or drug diluted in 10:90 DMSO:10% hydroxypropyl-beta-cyclodextrin orally until controls reached a tumor volume endpoint of 1-2 cm3 (4-9 mice per group: x5M1 and x6, 4 treated vs. 9 vehicle controls; x9, 4 treated vs. 5 vehicle controls; x11, 5 treated vs. 8 vehicle controls). Mice were treated with ATRA (ACC x6 and x11: 4 mg/mL, 0.2 mL flat dose; ACC×9: 3 mg/mL, 0.2 mL flat dose) or isotretinoin (30 mg/mL, 0.2 mL flat dose). Tumor growth was monitored and mice weighed twice weekly and studies ended when final group reached tumor volume endpoint. No statistical methods were employed to determine the sample size, and no blinding of investigators was performed. […]\nImmunohistochemistry: Sectioning and staining was carried out by the Dana-Farber/Harvard Cancer Center Specialized Histopathology Core using standard procedures on ACC x6, x9, and x11 samples (from long-term tumor growth inhibition studies). […] Primary antibody was detected using Bond Polymer Refine Detection kit. […] Images (>200 nuclei each) from three different individual primagrafts were blindly quantitated."}, "[5]": {"details": "Table 2, c-myb:GFP embryo cultures, average across two plates"}, "[6]": {"details": "Table 3, GFP signal in blastomere embryo culture screen"}},
  "data": [
    {"molecule": "CC(C=CC1=C(C)CCCC1(C)C)=CC=C/C(C)=C/C(=O)O", "note": "[ATRA, (E)-3,7-dimethyl-9-(2,6,6-trimethyl-1-cyclo-hexen-1-yl)-2,4,6,8-nonatetraenoic acid]", "values": [
      {"measurement": "Z-Score", "setting": "[1]; [5]", "value": "−5.729"},
      {"measurement": "Z-Score", "setting": "[1]; [6]", "value": "−5.729"},
      {"measurement": "tumor growth inhibition after discontinuation of treatment, ACC x11", "setting": "[2]; after approximately 28 days of treatment", "value": "sustained"},
      {"measurement": "tumor growth inhibition ACCx11", "setting": "[2]", "value": 105, "unit": "%"},
      {"measurement": "Average tumor growth inhibition across the three models", "setting": "[3]", "value": 88, "unit": "%"},
      {"measurement": "Average tumor growth inhibition across the three models", "setting": "[3]; listed as all-trans retinoic acid (ATRA)", "value": 88, "unit": "%"},
      {"measurement": "cell death (cleaved caspase-3 positive nuclei)", "setting": "[4]", "value": "induced more cell death"}
    ]},
    {"molecule": "CC1=C(/C=C/C(C)=C/C=C/C(C)=C/C(=O)Nc2ccc(O)cc2)C(C)(C)CCC1", "note": "[Fenretinide, retinoic acid p-hydroxyanilide]", "values": [
      {"measurement": "Z-Score", "setting": "[1]; [5]", "value": "−1.582"},
      {"measurement": "Z-Score", "setting": "[1]; [6]", "value": "−1.582"},
      {"measurement": "tumor growth inhibition ACCx11", "setting": "[2]", "value": 41, "unit": "%"},
      {"measurement": "Average tumor growth inhibition across the three models", "setting": "[3]", "value": 53, "unit": "%"},
      {"measurement": "Average tumor growth inhibition across the three models", "setting": "[3]; listed as fenretinide", "value": 53, "unit": "%"}
    ]},
    {"molecule": "CC1=C(/C=C/C(C)=C/C=C/C(C)=C\\C(=O)O)C(C)(C)CCC1", "note": "[Isotretinoin, 13-cis-retinoic acid]", "values": [
      {"measurement": "Z-Score", "setting": "[1]; [5]", "value": "−5.054"},
      {"measurement": "Z-Score", "setting": "[1]; [6]", "value": "−5.054"},
      {"measurement": "tumor growth inhibition ACCx11", "setting": "[2]", "value": 94, "unit": "%"},
      {"measurement": "Average tumor growth inhibition across the three models", "setting": "[3]", "value": 86, "unit": "%"},
      {"measurement": "Average tumor growth inhibition across the three models", "setting": "[3]; listed as isotretinoin", "value": 86, "unit": "%"}
    ]}
  ]
}
